Reference: US8075562B2, “Controlled release of biopharmaceutical growth factors from hydroxyapatite coating on bioresorbable interference screws used in cruciate ligament reconstruction surgery” (Wisconsin Alumni Research Foundation, priority 2007, dated 2011)
“Also recorded” adds a separate entry of the source. Where two headings read alike, the source gives them in different places.

Tests used:
mesenchymal stem cells = test: Stem cell-based bioactivity assay (alkaline phosphatase upregulation, osteogenic differentiation)
[1] = Binding of engineered BMP-2 peptide to hydroxyapatite in solution; details: preliminary results
Text: Binding growth factors to calcium phosphate minerals. Characterization of binding of engineered bone morphogenetic protein-2 peptide (eBMP-2) to CaP mineral materials is characterized. […] (See, FIGS. 10 and 11). […] (See, FIGS. 12 and 13). […] BMP-2 will be used because it has a high intrinsic affinity for CaP minerals.

KIPKA SSVPT ELSAI STLYL (KIPKASSVPTELSAISTLYL) [eBMP-2, engineered bone morphogenetic protein-2 peptide; hBMP-2: 73-92 (C78, 79S, M89T)]
osteogenic differentiation / alkaline phosphatase upregulation (mesenchymal stem cells): biologically active | osteogenic differentiation / alkaline phosphatase upregulation (mesenchymal stem cells; listed as e-BMP-2): promotes osteogenic differentiation | binding to hydroxyapatite in solution [1]: forms strong ionic bonds to hydroxyapatite; also recorded: binds to the hydroxyapatite mineral in solution
